Laboratory results as given in ChEMBL document CHEMBL1909046, “DrugMatrix in vitro pharmacology data”.

Target: T1, Endothelin-1 receptor (Homo sapiens, UniProt P25101); note: in other assays of this panel Not Active means under 50% inhibition at 10 µM
T1 sequence (P25101 whole entry): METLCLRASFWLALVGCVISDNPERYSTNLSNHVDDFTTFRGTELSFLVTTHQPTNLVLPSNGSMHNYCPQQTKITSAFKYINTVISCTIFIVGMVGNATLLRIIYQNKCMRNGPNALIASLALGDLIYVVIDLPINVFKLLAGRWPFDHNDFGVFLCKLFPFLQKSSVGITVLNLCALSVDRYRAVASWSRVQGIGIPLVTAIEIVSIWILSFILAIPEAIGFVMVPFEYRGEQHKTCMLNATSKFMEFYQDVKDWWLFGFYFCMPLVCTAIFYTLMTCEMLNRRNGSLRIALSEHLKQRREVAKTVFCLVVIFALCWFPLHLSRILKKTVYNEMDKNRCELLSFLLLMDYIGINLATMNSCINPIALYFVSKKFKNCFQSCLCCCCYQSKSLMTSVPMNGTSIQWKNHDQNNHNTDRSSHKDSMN
Format: cell membranes, CHO-K1, Membrane
Conditions: cho-k1

| SMILES | IC50 |
| --- | --- |
| O=C(O)CCCc1ccc(N(CCCl)CCCl)cc1 [CHLORAMBUCIL] | Not Active |
| Cc1ccc(N(CC2=NCCN2)c2cccc(O)c2)cc1 [PHENTOLAMINE] | Not Active |
| CC(C)(Oc1ccc(Cl)cc1)C(=O)O [CLOFIBRIC ACID] | Not Active |
| CC1(C)O[C@@H]2C[C@H]3[C@@H]4CCC5=CC(=O)CC[C@]5(C)[C@@]4(F)[C@@H](O)C[C@]3(C)[C@]2(C(=O)CCl)O1 [HALCINONIDE] | Not Active |
| NC(=O)N1c2ccccc2CCc2ccccc21 | Not Active |
| CC(C)C(Br)C(=O)NC(N)=O (configuration not stated) [BROMISOVALUM] | Not Active |

Tested on: not listed separately
Assay: DRUGMATRIX: Glutamate, Kainate radioligand binding (ligand: [3H] Kainic acid)
Format: cell membranes, Rattus norvegicus, Wistar, Brain, Membrane
Conditions: Not Active = under 50% inhibition at 10 µM

| SMILES | IC50 | Ki |
| --- | --- | --- |
| O=C(O)CCCc1ccc(N(CCCl)CCCl)cc1 [CHLORAMBUCIL] | Not Active | Not Active |
| Cc1ccc(N(CC2=NCCN2)c2cccc(O)c2)cc1 [PHENTOLAMINE] | Not Active | Not Active |
| CC(C)(Oc1ccc(Cl)cc1)C(=O)O [CLOFIBRIC ACID] | Not Active | Not Active |
| CC1(C)O[C@@H]2C[C@H]3[C@@H]4CCC5=CC(=O)CC[C@]5(C)[C@@]4(F)[C@@H](O)C[C@]3(C)[C@]2(C(=O)CCl)O1 [HALCINONIDE] | Not Active | Not Active |
| NC(=O)N1c2ccccc2CCc2ccccc21 | Not Active | Not Active |
| CC(C)C(Br)C(=O)NC(N)=O (configuration not stated) [BROMISOVALUM] | Not Active | Not Active |

Tested on: not listed separately
Assay: DRUGMATRIX: Glutamate, NMDA, Agonism radioligand binding (ligand: [3H] CGP-39653)
Format: cell membranes, Rattus norvegicus, Wistar, Cerebral cortex, Membrane
Conditions: Not Active = under 50% inhibition at 10 µM

| SMILES | IC50 | Ki |
| --- | --- | --- |
| O=C(O)CCCc1ccc(N(CCCl)CCCl)cc1 [CHLORAMBUCIL] | Not Active | Not Active |
| Cc1ccc(N(CC2=NCCN2)c2cccc(O)c2)cc1 [PHENTOLAMINE] | Not Active | Not Active |
| CC(C)(Oc1ccc(Cl)cc1)C(=O)O [CLOFIBRIC ACID] | Not Active | Not Active |
| CC1(C)O[C@@H]2C[C@H]3[C@@H]4CCC5=CC(=O)CC[C@]5(C)[C@@]4(F)[C@@H](O)C[C@]3(C)[C@]2(C(=O)CCl)O1 [HALCINONIDE] | Not Active | Not Active |
| NC(=O)N1c2ccccc2CCc2ccccc21 | Not Active | Not Active |
| CC(C)C(Br)C(=O)NC(N)=O (configuration not stated) [BROMISOVALUM] | Not Active | Not Active |

Target: T2, 3-hydroxy-3-methylglutaryl-coenzyme A reductase (Homo sapiens, UniProt P04035);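 note: enzyme inhibition assay of HMG-CoA reductase using radiolabeled [14C]HMG-CoA as substrate; in other assays of this panel Not Active means under 50% inhibition at 10 µM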
T2 sequence (P04035 whole entry): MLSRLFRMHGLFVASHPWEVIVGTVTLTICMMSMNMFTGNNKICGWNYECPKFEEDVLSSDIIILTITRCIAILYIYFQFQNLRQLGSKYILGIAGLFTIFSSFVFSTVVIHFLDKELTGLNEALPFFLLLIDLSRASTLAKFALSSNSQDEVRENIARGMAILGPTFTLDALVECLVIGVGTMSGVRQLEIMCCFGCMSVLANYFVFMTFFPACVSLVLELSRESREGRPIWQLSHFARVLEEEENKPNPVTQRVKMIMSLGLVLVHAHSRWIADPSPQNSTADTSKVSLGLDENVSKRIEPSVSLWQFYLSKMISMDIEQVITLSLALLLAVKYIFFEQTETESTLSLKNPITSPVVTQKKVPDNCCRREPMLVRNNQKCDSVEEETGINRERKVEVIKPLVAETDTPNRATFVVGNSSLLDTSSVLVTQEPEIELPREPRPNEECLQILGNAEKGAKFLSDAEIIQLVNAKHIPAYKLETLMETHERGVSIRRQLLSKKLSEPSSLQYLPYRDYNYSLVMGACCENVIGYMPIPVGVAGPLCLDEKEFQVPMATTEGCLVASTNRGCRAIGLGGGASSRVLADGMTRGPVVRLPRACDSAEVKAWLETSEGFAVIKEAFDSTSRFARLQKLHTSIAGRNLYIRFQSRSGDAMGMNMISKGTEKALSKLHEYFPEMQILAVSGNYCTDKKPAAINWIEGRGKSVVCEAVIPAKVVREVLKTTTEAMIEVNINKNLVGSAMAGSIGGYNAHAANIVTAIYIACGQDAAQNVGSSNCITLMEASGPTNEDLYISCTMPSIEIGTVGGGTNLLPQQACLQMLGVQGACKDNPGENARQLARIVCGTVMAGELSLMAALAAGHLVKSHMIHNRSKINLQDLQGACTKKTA
Parameters: species or system Escherichia coli
Conditions: not given

| SMILES | IC50 |
| --- | --- |
| O=C(O)CCCc1ccc(N(CCCl)CCCl)cc1 [CHLORAMBUCIL] | Not Active |
| Cc1ccc(N(CC2=NCCN2)c2cccc(O)c2)cc1 [PHENTOLAMINE] | Not Active |
| CC(C)(Oc1ccc(Cl)cc1)C(=O)O [CLOFIBRIC ACID] | Not Active |
| CC1(C)O[C@@H]2C[C@H]3[C@@H]4CCC5=CC(=O)CC[C@]5(C)[C@@]4(F)[C@@H](O)C[C@]3(C)[C@]2(C(=O)CCl)O1 [HALCINONIDE] | Not Active |
| NC(=O)N1c2ccccc2CCc2ccccc21 | Not Active |
| CC(C)C(Br)C(=O)NC(N)=O (configuration not stated) [BROMISOVALUM] | Not Active |

Tested on: not listed separately
Assay: DRUGMATRIX: Interleukin IL-1 radioligand binding (ligand: [125I] interleukin 1beta)
Format: cell membranes, Membrane
Conditions: nih3t3; Not Active = under 50% inhibition at 10 µM

| SMILES | IC50 | Ki |
| --- | --- | --- |
| O=C(O)CCCc1ccc(N(CCCl)CCCl)cc1 [CHLORAMBUCIL] | Not Active | Not Active |
| Cc1ccc(N(CC2=NCCN2)c2cccc(O)c2)cc1 [PHENTOLAMINE] | Not Active | Not Active |
| CC(C)(Oc1ccc(Cl)cc1)C(=O)O [CLOFIBRIC ACID] | Not Active | Not Active |
| CC1(C)O[C@@H]2C[C@H]3[C@@H]4CCC5=CC(=O)CC[C@]5(C)[C@@]4(F)[C@@H](O)C[C@]3(C)[C@]2(C(=O)CCl)O1 [HALCINONIDE] | Not Active | Not Active |
| NC(=O)N1c2ccccc2CCc2ccccc21 | Not Active | Not Active |
| CC(C)C(Br)C(=O)NC(N)=O (configuration not stated) [BROMISOVALUM] | Not Active | Not Active |

Target: T3, Cysteinyl leukotriene receptor 1 (Homo sapiens, UniProt Q9Y271); note: in other assays of this panel Not Active means under 50% inhibition at 10 µM
T3 sequence (Q9Y271 whole entry): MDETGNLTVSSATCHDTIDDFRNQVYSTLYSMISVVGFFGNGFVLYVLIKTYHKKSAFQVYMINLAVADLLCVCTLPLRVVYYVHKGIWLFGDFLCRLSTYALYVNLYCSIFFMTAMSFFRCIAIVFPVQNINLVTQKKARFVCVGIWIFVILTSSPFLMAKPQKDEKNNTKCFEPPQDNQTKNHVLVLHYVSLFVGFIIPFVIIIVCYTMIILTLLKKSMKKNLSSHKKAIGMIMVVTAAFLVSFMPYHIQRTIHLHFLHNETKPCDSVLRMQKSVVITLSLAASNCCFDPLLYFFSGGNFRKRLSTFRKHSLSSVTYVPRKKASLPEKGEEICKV
Format: cell membranes, CHO-K1, Membrane
Conditions: cho-k1

| SMILES | IC50 |
| --- | --- |
| O=C(O)CCCc1ccc(N(CCCl)CCCl)cc1 [CHLORAMBUCIL] | Not Active |
| Cc1ccc(N(CC2=NCCN2)c2cccc(O)c2)cc1 [PHENTOLAMINE] | Not Active |
| CC(C)(Oc1ccc(Cl)cc1)C(=O)O [CLOFIBRIC ACID] | Not Active |
| CC1(C)O[C@@H]2C[C@H]3[C@@H]4CCC5=CC(=O)CC[C@]5(C)[C@@]4(F)[C@@H](O)C[C@]3(C)[C@]2(C(=O)CCl)O1 [HALCINONIDE] | Not Active |
| NC(=O)N1c2ccccc2CCc2ccccc21 | Not Active |
| CC(C)C(Br)C(=O)NC(N)=O (configuration not stated) [BROMISOVALUM] | Not Active |

Target: cGMP-specific 3',5'-cyclic phosphodiesterase (Homo sapiens, UniProt O76074)
Assay: DRUGMATRIX: Phosphodiesterase PDE5 enzyme inhibition (substrate: [3H]cGMP + cGMP)
Format: tissue-based
Conditions: platelet; Not Active = under 50% inhibition at 10 µM

| SMILES | IC50 |
| --- | --- |
| O=C(O)CCCc1ccc(N(CCCl)CCCl)cc1 [CHLORAMBUCIL] | Not Active |
| Cc1ccc(N(CC2=NCCN2)c2cccc(O)c2)cc1 [PHENTOLAMINE] | Not Active |
| CC(C)(Oc1ccc(Cl)cc1)C(=O)O [CLOFIBRIC ACID] | Not Active |
| CC1(C)O[C@@H]2C[C@H]3[C@@H]4CCC5=CC(=O)CC[C@]5(C)[C@@]4(F)[C@@H](O)C[C@]3(C)[C@]2(C(=O)CCl)O1 [HALCINONIDE] | Not Active |
| NC(=O)N1c2ccccc2CCc2ccccc21 | Not Active |
| CC(C)C(Br)C(=O)NC(N)=O (configuration not stated) [BROMISOVALUM] | Not Active |

Target: Acetylcholinesterase (Homo sapiens, UniProt P22303)
Assay: DRUGMATRIX: Acetylcholinesterase enzyme inhibition (substrate: acetylthiocholine)
Format: cell-based, HEK293
Conditions: hek293; Not Active = under 50% inhibition at 10 µM

Acetylcholinesterase, sequence (P22303 whole entry): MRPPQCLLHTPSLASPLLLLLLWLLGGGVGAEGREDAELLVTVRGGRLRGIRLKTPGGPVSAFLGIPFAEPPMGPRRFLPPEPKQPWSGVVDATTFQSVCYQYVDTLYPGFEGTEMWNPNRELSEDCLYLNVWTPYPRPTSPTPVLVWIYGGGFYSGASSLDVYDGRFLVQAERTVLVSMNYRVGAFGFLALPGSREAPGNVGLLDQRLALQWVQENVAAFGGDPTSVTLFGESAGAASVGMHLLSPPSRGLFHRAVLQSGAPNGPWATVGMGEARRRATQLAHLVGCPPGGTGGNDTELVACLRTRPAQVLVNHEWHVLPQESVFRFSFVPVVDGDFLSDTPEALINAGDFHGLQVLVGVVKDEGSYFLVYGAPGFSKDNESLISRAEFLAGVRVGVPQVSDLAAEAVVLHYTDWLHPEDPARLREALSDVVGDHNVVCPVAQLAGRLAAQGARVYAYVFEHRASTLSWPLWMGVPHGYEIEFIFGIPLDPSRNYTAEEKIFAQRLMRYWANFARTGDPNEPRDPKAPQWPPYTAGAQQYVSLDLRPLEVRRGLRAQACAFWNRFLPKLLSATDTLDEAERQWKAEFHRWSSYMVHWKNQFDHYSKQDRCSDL

| SMILES | IC50 |
| --- | --- |
| O=C(O)CCCc1ccc(N(CCCl)CCCl)cc1 [CHLORAMBUCIL] | Not Active |
| Cc1ccc(N(CC2=NCCN2)c2cccc(O)c2)cc1 [PHENTOLAMINE] | Not Active |
| CC(C)(Oc1ccc(Cl)cc1)C(=O)O [CLOFIBRIC ACID] | Not Active |
| CC1(C)O[C@@H]2C[C@H]3[C@@H]4CCC5=CC(=O)CC[C@]5(C)[C@@]4(F)[C@@H](O)C[C@]3(C)[C@]2(C(=O)CCl)O1 [HALCINONIDE] | Not Active |
| NC(=O)N1c2ccccc2CCc2ccccc21 | Not Active |
| CC(C)C(Br)C(=O)NC(N)=O (configuration not stated) [BROMISOVALUM] | Not Active |

Target: T4, Adenosine receptor A1 (Homo sapiens, UniProt P30542);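 note: radioligand binding assay at the adenosine A1 receptor, with DPCPX serving as the labelled ligand; in other assays of this panel Not Active means under 50% inhibition at 10 µM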
T4 sequence (P30542 whole entry): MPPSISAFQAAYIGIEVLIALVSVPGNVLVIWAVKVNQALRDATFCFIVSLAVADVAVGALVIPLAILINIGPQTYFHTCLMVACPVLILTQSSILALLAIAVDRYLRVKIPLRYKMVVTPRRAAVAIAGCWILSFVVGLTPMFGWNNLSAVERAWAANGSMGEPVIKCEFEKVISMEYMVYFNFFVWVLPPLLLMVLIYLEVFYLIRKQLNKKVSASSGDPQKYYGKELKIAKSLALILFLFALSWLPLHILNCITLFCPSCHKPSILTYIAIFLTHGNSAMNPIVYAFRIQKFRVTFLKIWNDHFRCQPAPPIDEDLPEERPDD
Format: cell membranes, CHO, Membrane
Conditions: cho

| SMILES | IC50 |
| --- | --- |
| O=C(O)CCCc1ccc(N(CCCl)CCCl)cc1 [CHLORAMBUCIL] | Not Active |
| Cc1ccc(N(CC2=NCCN2)c2cccc(O)c2)cc1 [PHENTOLAMINE] | Not Active |
| CC(C)(Oc1ccc(Cl)cc1)C(=O)O [CLOFIBRIC ACID] | Not Active |
| CC1(C)O[C@@H]2C[C@H]3[C@@H]4CCC5=CC(=O)CC[C@]5(C)[C@@]4(F)[C@@H](O)C[C@]3(C)[C@]2(C(=O)CCl)O1 [HALCINONIDE] | Not Active |
| NC(=O)N1c2ccccc2CCc2ccccc21 | Not Active |
| CC(C)C(Br)C(=O)NC(N)=O (configuration not stated) [BROMISOVALUM] | Not Active |
